From patent publication US20060148858A1, “1, 2-Azole derivatives with hypoglycemic and hypolipidemic activity” (priority 2002, published 2006)

Structure (SMILES) | melting point [°C]
CCOc1nn(-c2ccccn2)cc1CCCOc1cccc(OC(C)(C)C(=O)O)c1 [Example 101, 2-(3-{3-[3-ethoxy-1-(2-pyridinyl)-1H-pyrazol-4-yl]propoxy}phenoxy)-2-methylpropanoic acid] | 99 to 101
CCOc1nn(-c2ccccn2)cc1CCCOc1cc(CCC(=O)O)n(-c2ccccc2)n1 [Example 103, 3-(3-{3-[3-ethoxy-1-(2-pyridinyl)-1H-pyrazol-4-yl]propoxy}-1-phenyl-1H-pyrazol-5-yl)propanoic acid] | 156 to 157
CCOc1nn(-c2ccccn2)cc1CCCOc1cccc(CC(=O)O)c1 [Example 106, (3-{3-[3-ethoxy-1-(2-pyridinyl)-1H-pyrazol-4-yl]propoxy}phenyl)acetic acid] | 66 to 67
CCOc1cc(OCCCCc2cn(-c3ccc(C(F)(F)F)cn3)nc2OCC)ccc1CCC(=O)O [Example 107, 3-[2-ethoxy-4-(4-{3-ethoxy-1-[5-(trifluoromethyl)-2-pyridinyl]-1H-pyrazol-4-yl}butoxy)phenyl]propanoic acid] | 101 to 102
CCOc1cc(OCCCc2cn(-c3ccccn3)nc2OCC)ccc1CCC(=O)O [Example 108, 3-(2-ethoxy-4-{3-[3-ethoxy-1-(2-pyridinyl)-1H-pyrazol-4-yl]propoxy}phenyl)propanoic acid] | 110 to 111
CCOc1nn(-c2ccccn2)cc1CCCOc1ccc(CCC(=O)O)cc1OC [Example 109, 3-(4-{3-[3-ethoxy-1-(2-pyridinyl)-1H-pyrazol-4-yl]propoxy}-3-methoxyphenyl)propanoic acid] | 92 to 93
CCOc1nn(-c2ccc(C(F)(F)F)cn2)cc1CCCOc1ccc(CCC(=O)O)c(OCc2ccccc2)c1 [Example 112, 3-[2-(benzyloxy)-4-(3-{3-ethoxy-1-[5-(trifluoromethyl)-2-pyridinyl]-1H-pyrazol-4-yl}propoxy)phenyl]propanoic acid] | 128 to 130
CCOc1cc(OCCCc2cn(-c3ccc(C(F)(F)F)cc3)nc2OCC)ccc1CCC(=O)O [Example 114, 3-[2-ethoxy-4-(3-{3-ethoxy-1-[4-(trifluoromethyl)phenyl]-1H-pyrazol-4-yl}propoxy)phenyl]propanoic acid] | 131 to 132
CCOc1nn(-c2ccc(C(F)(F)F)cc2)cc1CCCOc1ccc(CCC(=O)O)cc1OC [Example 115, 3-[4-(3-{3-ethoxy-1-[4-(trifluoromethyl)phenyl]-1H-pyrazol-4-yl}propoxy)-3-methoxyphenyl]propanoic acid] | 125 to 126
CCOc1nn(-c2ccc(C(F)(F)F)cn2)cc1CCCOc1cc(CC(=O)O)n(C)n1 [Example 119, [3-(3-{3-ethoxy-1-[5-(trifluoromethyl)-2-pyridinyl]-1H-pyrazol-4-yl}propoxy)-1-methyl-1H-pyrazol-5-yl]acetic acid] | 151 to 152
CCCc1nn(-c2ccc(C(F)(F)F)cn2)cc1COc1ccc(CCC(=O)O)c(OC)c1 [Example 120, 3-[2-methoxy-4-({3-propyl-1-[5-(trifluoromethyl)-2-pyridyl]-1H-pyrazol-4-yl}methoxy)phenyl]propionic acid] | 153 to 154
CCCc1nn(-c2ccc(C(F)(F)F)cn2)cc1COc1ccc(CCC(=O)O)c(C)c1 [Example 121, 3-[2-methyl-4-({3-propyl-1-[5-(trifluoromethyl)-2-pyridyl]-1H-pyrazol-4-yl}methoxy)phenyl]propionic acid] | 129 to 130
Cc1nn(-c2ccc(C(F)(F)F)cn2)cc1CCCOc1cc(CCC(=O)O)n(-c2ccccc2)n1 [Example 128, 3-[3-(3-{3-methyl-1-[5-(trifluoromethyl)-2-pyridyl]-1H-pyrazol-4-yl}propoxy)-1-phenyl-1H-pyrazol-5-yl]propionic acid] | 125 to 126
Cc1nn(-c2ccc(C(F)(F)F)cn2)cc1CCCOc1cccc(OC(C)(C)C(=O)O)c1 [Example 130, 2-methyl-2-[3-(3-{3-methyl-1-[5-(trifluoromethyl)-2-pyridyl]-1H-pyrazol-4-yl}propoxy)phenoxy]propionic acid] | 107 to 108
CCOc1nn(-c2ccc(C(F)(F)F)cn2)cc1CCCOc1ccc(OC)cc1CC(=O)O [Example 132, [2-(3-{3-ethoxy-1-[5-(trifluoromethyl)-2-pyridyl]-1H-pyrazol-4-yl}propoxy)-5-methoxyphenyl]acetic acid] | 138 to 139
CC(C)(Oc1cccc(OCCCc2cn(-c3ccc(C(F)(F)F)cn3)nc2-c2ccccc2)c1)C(=O)O [Example 133, 2-methyl-2-[3-(3-{3-phenyl-1-[5-(trifluoromethyl)-2-pyridyl]-1H-pyrazol-4-yl}propoxy)phenoxy]propionic acid] | 141 to 142
O=C(O)Cc1ccccc1OCCCc1cn(-c2ccc(C(F)(F)F)cn2)nc1-c1ccccc1 [Example 134, [2-(3-{3-phenyl-1-[5-(trifluoromethyl)-2-pyridyl]-1H-pyrazol-4-yl}propoxy)phenyl]acetic acid] | 133 to 134

Structure (SMILES) | melting point [°C]
CCOc1nn(-c2ccc(C(F)(F)F)cn2)cc1CCCOc1nn(C)cc1CC(=O)O [Example 135, [3-(3-{3-ethoxy-1-[5-(trifluoromethyl)-2-pyridyl]-1H-pyrazol-4-yl}propoxy)-1-methyl-1H-pyrazol-4-yl]acetic acid] | 115 to 116
CCOc1nn(-c2ccc(C(F)(F)F)cn2)cc1CCCOc1nn(-c2ccccc2)cc1CC(=O)O [Example 136, [3-(3-{3-ethoxy-1-[5-(trifluoromethyl)-2-pyridyl]-1H-pyrazol-4-yl}propoxy)-1-phenyl-1H-pyrazol-4-yl]acetic acid] | 117 to 118
CCOc1nn(-c2ccc(C(F)(F)F)cn2)cc1CCCOc1ccc(Cl)cc1CC(=O)O [Example 139, [5-chloro-2-(3-{3-ethoxy-1-[5-(trifluoromethyl)-2-pyridyl]-1H-pyrazol-4-yl}propoxy)phenyl]acetic acid] | 130 to 131
CCOc1ccc(OCCCc2cn(-c3ccc(C(F)(F)F)cn3)nc2OCC)c(CCC(=O)O)c1 [Example 140, 3-[2-(3-{3-ethoxy-1-[5-(trifluoromethyl)-2-pyridyl]-1H-pyrazol-4-yl}propoxy)-5-ethoxyphenyl]propionic acid] | 104 to 105
Cc1nn(-c2ccc(C(F)(F)F)cn2)cc1CCCOc1ccccc1CC(=O)O [Example 141, [2-(3-{3-methyl-1-[5-(trifluoromethyl)-2-pyridyl]-1H-pyrazol-4-yl}propoxy)phenyl]acetic acid] | 128 to 129
CCOc1nn(-c2ccc(C(F)(F)F)cn2)cc1CCCOc1cc(OC)ccc1CC(=O)O [Example 142, [2-(3-{3-ethoxy-1-[5-(trifluoromethyl)-2-pyridyl]-1H-pyrazol-4-yl}propoxy)-4-methoxyphenyl]acetic acid] | 147 to 148
CCOc1nn(-c2ccc(C(F)(F)F)cn2)cc1CCCOc1cc(OC)ccc1CCC(=O)O [Example 143, 3-[2-(3-{3-ethoxy-1-[5-(trifluoromethyl)-2-pyridyl]-1H-pyrazol-4-yl}propoxy)-4-methoxyphenyl]propionic acid] | 115 to 116
CCOc1nn(-c2ccc(C(F)(F)F)cn2)cc1CCCOc1ccccc1CCC(=O)O [Example 144, 3-[2-(3-{3-ethoxy-1-[5-(trifluoromethyl)-2-pyridyl]-1H-pyrazol-4-yl}propoxy)phenyl]propionic acid] | 93 to 94
CCOc1nn(-c2ccc(C(F)(F)F)cn2)cc1CCCOc1c(CCC(=O)O)cccc1OC [Example 145, 3-[2-(3-{3-ethoxy-1-[5-(trifluoromethyl)-2-pyridyl]-1H-pyrazol-4-yl}propoxy)-3-methoxyphenyl]propionic acid] | 87 to 88
CCCc1nn(-c2ccc(C(F)(F)F)cn2)cc1COc1cccc(CC(=O)O)c1 [Example 147, [3-({3-propyl-1-[5-(trifluoromethyl)-2-pyridyl]-1H-pyrazol-4-yl}methoxy)phenyl]acetic acid] | 77 to 78
CCOc1nn(-c2ccc(C(F)(F)F)cn2)cc1CCCOc1cccc(OC)c1CCC(=O)O [Example 148, 3-[2-(3-{3-ethoxy-1-[5-(trifluoromethyl)-2-pyridyl]-1H-pyrazol-4-yl}propoxy)-6-methoxyphenyl]propionic acid] | 110 to 111
Cc1nn(-c2ccc(C(F)(F)F)cn2)cc1COc1cccc(CC(=O)O)c1 [Example 149, [3-({3-methyl-1-[5-(trifluoromethyl)-2-pyridyl]-1H-pyrazol-4-yl}methoxy)phenyl]acetic acid] | 142 to 143
CCOc1cc(OCCCc2cn(-c3ccc(C(F)(F)F)cn3)nc2O)ccc1CCC(=O)O [Example 151, 3-[2-ethoxy-4-(3-{3-hydroxy-1-[5-(trifluoromethyl)-2-pyridyl]-1H-pyrazol-4-yl}propoxy)phenyl]propanoic acid] | 192 to 194
CCOc1cc(OCCCc2cn(-c3ccc(C(F)(F)F)cn3)nc2OCc2ccccc2)ccc1CCC(=O)O [Example 156, 3-[4-(3-{3-benzyloxy-1-[5-(trifluoromethyl)-2-pyridyl]-1H-pyrazol-4-yl}propoxy)-2-ethoxyphenyl]propanoic acid] | 106 to 107
CCCc1nn(-c2ccc(C(F)(F)F)cn2)cc1CCCOc1cccc(C(C)(C)C(=O)O)c1 [Example 159, 2-methyl-2-[3-(3-{3-propyl-1-[5-(trifluoromethyl)-2-pyridyl]-1H-pyrazol-4-yl}propoxy)phenyl]propanoic acid] | 82 to 83
CCOc1nn(-c2ccc(C(F)(F)F)cn2)cc1CCCOc1cccc(C(C)(C)C(=O)O)c1 [Example 160, 2-[3-(3-{3-ethoxy-1-[5-(trifluoromethyl)-2-pyridyl]-1H-pyrazol-4-yl}propoxy)phenyl]-2-methylpropanoic acid] | 131 to 132
CCOc1nn(-c2ccc(C(F)(F)F)cn2)cc1CCCOc1ccc(CCC(=O)O)cc1O [Example 161, 3-[4-(3-{3-ethoxy-1-[5-(trifluoromethyl)-2-pyridyl]-1H-pyrazol-4-yl}propoxy)-3-hydroxyphenyl]propanoic acid] | 124 to 125
